Assay results published in patent publication US9642870B2, “Composition for preventing or alleviating atopic dermatitis comprising immunosuppressant and transglutaminase 2 inhibitor” (Dongguk University Industry-Academic Cooperation Foundation, priority 2011, dated 2017).

How the values were obtained:
[1] = test system: severe atopic dermatitis patients; assay: Clinical test: objective SCORAD index in atopic dermatitis patients; settings: FIG. 17
Method: During the experiments, the vital signs, that is, a blood pressure and a pulse, were measured after patients sat for 3 minutes to rest.
Thereafter, the SCORAD indexes were measured. […] The SCORAD indexes were measured before dosage and at points of time at which the dosage methods were changed. It was assumed that an area of lesions was set to 0 to 100% according to the rule of nine, the SCORAD index was calculated as the sum (0-103) of an objective SCORAD index and a subjective SCORAD index. Here, the objective SCORAD index was calculated by dividing the severity of atopic dermatitis, which was divided into 6 categories of erythema, edema/papulation, oozing/crusts, excoriations, lichenification and skin dryness, by 0 to 3, summing up the calculated values, and adding the sum of the calculated values to ⅕ of the area of the lesions, and the subjective SCORAD index was obtained by setting each of pruritus and dyssomnia during waking hours to analog scales 0 to 10 (European Task Force on Atopic Dermatitis, 1993). […] Therefore, only the objective SCORAD index was evaluated in this Example.
The changes in the SCORAD indexes of the 10 patients were plotted on one graph.
Then, average lines plotted from the results of all the patients were drawn, and compared.

IgE = assay: Total serum IgE (ELISA); format: in vivo, mice; settings: administered alone, compared with the control
Method: Since the major symptoms of atopic dermatitis were associated with strong Th2 immune response, IgE was produced at an excessive amount. Therefore, either glucosamine or tacrolimus was administered alone to the atopy-induced mice, or glucosamine and tacrolimus were administered in combination to measure a level of IgE in the serum. After one week had elapsed after the final administration, sera were obtained from the mice, and a total level of IgE was measured using an ELISA kit (Yamasa, Tokyo, Japan).

[2] = in vivo
[3] = Minimum and maximum doses from experiments conducted at a cell level; format: cell-based; settings: no difference in inhibition level
IFN-g, IL-4, IL-5 = assay: Immunosuppressive effects of immunosuppressants administered alone (IFN-g, IL-4, IL-5 concentrations); format: cell-based; settings: FIGS. 24 to 26
Source text: Further, immunosuppressive effects according to the kinds of immunosuppressants were further confirmed through experiments conducted to determine a proper dosage concentration.

Structure (SMILES)	change in SCORAD indexes ([1]; glucosamine administered alone, November 10 to November 24)	therapeutic effect (SCORAD indexes), summary ([1]; single versus combined administration)	total level of IgE in the serum (IgE)	blood glucosamine concentrations, animals versus humans [2]	dose required relative to cyclosporine [3]	immunosuppressive effect (changes in concentrations of IFN-g, IL-4, IL-5) (IFN-g, IL-4, IL-5)
N[C@H]1C(O)O[C@H](CO)[C@@H](O)[C@@H]1O (stereo partly shown) [glucosamine]	no change	poor therapeutic effect	no clear difference	no significant difference		
C=CC[C@@H]1/C=C(\C)C[C@H](C)C[C@H](OC)[C@H]2O[C@@](O)(C(=O)C(=O)N3CCCC[C@H]3C(=O)O[C@H](/C(C)=C/[C@@H]3CC[C@@H](O)[C@H](OC)C3)[C@H](C)[C@@H](O)CC1=O)[C@H](C)C[C@@H]2OC [tacrolimus]			no clear difference		lower dose than cyclosporine by a factor of 10	suppressed an immune response
